Laboratory results: US12635715B2, “Isofucosterol and combinations of isofucosterol and a multiplicity of sterols as a nutrient for animals” (APIX BIOSCIENCES, priority 2022, dated 2026)

System: honeybee colonies (Apidea nucs)
Assay: Brood production in Apidea nucs fed isofucosterol diets (Example 3)
Assay type: in vivo, honeybees
Conditions: as the concentration of isofucosterol in the diet increased; N>3 colonies/treatment
Protocol: Honeybees: Fully functional insulated styrofoam Apidea nucs comprised 5 mini frames populated with adult workers and 1 mated laying queen bee were populated with 300-400 ml of young adult workers (˜N<1.000 bees of mixed ages).
Each treatment was tested with 3-6 colonies; each colony was fed with a 60-100 g patty (solid diet) on the top feeder fitted with a mesh floor. Diet was fed on the first day and again on day 6; the quantity consumed was measured on day 6 and day 15. If no larvae or eggs/queen are observed by day 6 then the experiment is terminated. The number of capped brood cells was counted on day 15. The number of bee seams was estimated during each inspection. Sugar syrup (34%) and water was provided in feeders inside the tent to prevent carbohydrate starvation and to stimulate foraging activity.
In Example 3, bees were fed with a diet containing 10-18% protein, 6% fat, 1% vitamins/minerals and >75% carbohydrates.
As the concentration of isofucosterol increased, the amount of brood produced in each colony increased (N>3 colonies/treatment). The pupae, and the number of new adults was counted over the entire 10-week period.

C/C=C(/CC[C@@H](C)[C@H]1CC[C@H]2[C@@H]3CC=C4C[C@@H](O)CC[C@]4(C)[C@H]3CC[C@]12C)C(C)C [isofucosterol, Isofucosterol]
amount of brood produced in each colony: increased
